For nine compounds, GI50 and TGI results are on record in PubChem BioAssay (NCI).

Test systems include NCI/ADR-RES ovarian; CCRF-CEM leukemia; NCI-H23 lung; SF-295 CNS; PC-3 prostate; HCT-15 colon; NCI-H226 lung; HS 578T breast; MALME-3M melanoma; HT29 colon.
Holding throughout (test): DTP human tumour cell line panel, 48 h

SMILES strings stand for the structures. Values joined by “and” are separate entries in the source; they are usually repeats but may differ in a detail not shown here. Equal entries are not always repeated.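 How tested: cells in 96-well plates exposed to compound for 48 hours at five concentrations. GI50: concentration for 50% inhibition of growth. At the TGI there is no net growth.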 Bounds are passed on as bounds.

Consider `CCOC(=O)[C@@H]1CSC(CC)=C(C(=O)O)N1`, for which the GI50 with NCI/ADR-RES ovarian, with CCRF-CEM leukemia, with NCI-H23 lung, in the test on SF-295 CNS, in the test with PC-3 prostate and in the test on HCT-15 colon was greater than 100 µM each time. Further, the GI50 in the test with NCI-H226 lung, in the test on HS 578T breast, in the test with MALME-3M melanoma and in the test with HT29 colon was greater than 100 µM in each case. Besides, the total growth inhibition concentration (TGI) in the test on NCI/ADR-RES ovarian, with CCRF-CEM leukemia, in the test on NCI-H23 lung, in the test with SF-295 CNS, with PC-3 prostate and with HCT-15 colon was greater than 100 µM each time. Moreover, the TGI in the test on NCI-H226 lung, in the test on HS 578T breast, in the test on MALME-3M melanoma and in the test on HT29 colon was greater than 100 µM in each case.

Take `CC1(C)C2CCC13C(=O)C1OC3(C2)C2C(=O)c3c(ccc4c3ccc3ccccc34)C(=O)C12` (configuration not stated): the GI50 with NCI/ADR-RES ovarian was greater than 46.7 µM; in the test on CCRF-CEM leukemia it was 21.5 µM; with NCI-H23 lung, greater than 48.4 µM; in the test with SF-295 CNS it was 13.2 µM; in the test on PC-3 prostate, greater than 66.5 µM; with HCT-15 colon, greater than 53.5 µM. In addition, the GI50 was greater than 100 µM in the test with NCI-H226 lung, greater than 56.1 µM in the test with HS 578T breast, 25.2 µM with MALME-3M melanoma and greater than 64.6 µM with HT29 colon. The TGI with NCI/ADR-RES ovarian was greater than 94.8 µM; in the test on CCRF-CEM leukemia it was greater than 62.9 µM; in the test on NCI-H23 lung, greater than 81.5 µM; in the test on SF-295 CNS, 92.6 µM; in the test with PC-3 prostate it was greater than 100 µM; in the test with HCT-15 colon, greater than 100 µM. Further, the TGI in the test on NCI-H226 lung was greater than 100 µM; in the test on HS 578T breast, greater than 100 µM; in the test on MALME-3M melanoma, greater than 89.2 µM; in the test with HT29 colon it was greater than 100 µM.

As to `Cn1c(=O)c2c(nc(N/N=C/c3ccccc3C(=O)O)n2C)n(C)c1=O`, the TGI with NCI/ADR-RES ovarian, in the test with CCRF-CEM leukemia, with NCI-H23 lung, in the test on SF-295 CNS, in the test on PC-3 prostate and in the test with HCT-15 colon was greater than 100 µM throughout. The TGI in the test on NCI-H226 lung, with HS 578T breast, with MALME-3M melanoma and in the test with HT29 colon was greater than 100 µM each time.

`O=NNc1ccc(S(=O)(=O)c2ccc3ccccc3c2)cn1`: the TGI in the test on NCI/ADR-RES ovarian, with CCRF-CEM leukemia, with NCI-H23 lung, in the test with SF-295 CNS, with PC-3 prostate and with HCT-15 colon was greater than 100 µM throughout. Also, the TGI in the test with NCI-H226 lung, with HS 578T breast, with MALME-3M melanoma and in the test with HT29 colon was greater than 100 µM in each case.

For `OCC(O)C(O)C(O)C(O)c1nnc2c(-c3ccccc3)nc3ccccc3n12` (configuration not stated), the GI50 in the test with NCI/ADR-RES ovarian is 69.2 µM; in the test with CCRF-CEM leukemia, greater than 100 µM; in the test with NCI-H23 lung, greater than 100 µM; with SF-295 CNS, greater than 100 µM; in the test on PC-3 prostate, 43.2 µM; with HCT-15 colon, 53.1 µM. Further, the GI50 in the test on NCI-H226 lung was greater than 100 µM; in the test with HS 578T breast, 57.9 µM; with MALME-3M melanoma, 38.7 µM; with HT29 colon, 86.3 µM. Besides, the TGI in the test on NCI/ADR-RES ovarian, in the test with CCRF-CEM leukemia, with NCI-H23 lung, in the test with SF-295 CNS, in the test on PC-3 prostate and with HCT-15 colon was greater than 100 µM each time. For the same compound, the concentration for total growth inhibition (TGI) in the test with NCI-H226 lung, in the test with HS 578T breast, in the test on MALME-3M melanoma and in the test on HT29 colon was greater than 100 µM in each case.

As to `CC1(C)N=C(N)N=C(N)N1c1cccc(CCc2ccccc2)c1`, the GI50 in the test with NCI/ADR-RES ovarian was greater than 100 µM; in the test with CCRF-CEM leukemia, 0.566 µM; in the test on NCI-H23 lung, 0.551 µM; in the test with SF-295 CNS, 0.604 µM; in the test with PC-3 prostate it was 0.11 µM; with HCT-15 colon, 45.6 µM. Further, the GI50 was 3.42 µM in the test on NCI-H226 lung, 22.4 µM in the test on HS 578T breast, 1.04 µM in the test with MALME-3M melanoma and 0.135 µM in the test with HT29 colon. The TGI was greater than 100 µM with NCI/ADR-RES ovarian; greater than 100 µM with CCRF-CEM leukemia; greater than 100 µM with NCI-H23 lung; greater than 100 µM with SF-295 CNS; greater than 59 µM in the test on PC-3 prostate; greater than 100 µM in the test on HCT-15 colon. Besides, the TGI in the test with NCI-H226 lung is greater than 100 µM; in the test with HS 578T breast, greater than 100 µM; in the test on MALME-3M melanoma it was greater than 68.8 µM; in the test with HT29 colon, 18.6 µM.

Consider `CC(=O)OCC1OC(n2c3c(cc(C#N)c2=S)CCCC3)C(OC(C)=O)C(OC(C)=O)C1OC(C)=O` (configuration not stated), for which the TGI is greater than 100 µM in the test with NCI/ADR-RES ovarian; greater than 100 µM in the test on CCRF-CEM leukemia; greater than 100 µM in the test on NCI-H23 lung; > 100 µM and 48.4 µM in the test on SF-295 CNS; greater than 100 µM in the test on PC-3 prostate; greater than 100 µM in the test on HCT-15 colon. The TGI in the test with NCI-H226 lung was greater than 100 µM; with HS 578T breast, greater than 100 µM; in the test on MALME-3M melanoma it was greater than 100 µM; in the test on HT29 colon, 83.9 µM and > 100 µM. Moreover, the GI50 in the test with CCRF-CEM leukemia is 43.2 µM and > 100 µM; in the test on SF-295 CNS, > 100 µM and 19.7 µM; with PC-3 prostate, 36.6 µM and > 100 µM; in the test on HS 578T breast it was > 100 µM and 25.5 µM; in the test with HT29 colon, 26.7 µM and > 100 µM.

Take `COc1cc2c3cc1Oc1c(OC)c(OC)cc4c1C(Cc1ccc(O)c(c1)Oc1ccc(cc1)CC3N(C)CC2)N(C)CC4` (configuration not stated): the TGI was greater than 100 µM in the test with NCI/ADR-RES ovarian; 81.8 µM and 57.6 µM in the test on CCRF-CEM leukemia; 31.1 µM and > 100 µM in the test with NCI-H23 lung; 59.1 µM and 29.8 µM in the test on SF-295 CNS; greater than 100 µM in the test with PC-3 prostate; 37.6 µM and > 100 µM with HCT-15 colon. Moreover, the TGI was greater than 100 µM with NCI-H226 lung; 55.3 µM and 43.4 µM with HS 578T breast; > 100 µM and 23.8 µM in the test with MALME-3M melanoma; > 100 µM and 32.8 µM in the test on HT29 colon. In addition, the GI50 in the test with SF-295 CNS is 13.3 µM; with PC-3 prostate, 23.4 µM; in the test on HCT-15 colon, 4.82 µM; with NCI-H226 lung, 34.4 µM; in the test on HS 578T breast, 15.3 µM; in the test on MALME-3M melanoma, 8.17 µM. In addition, the GI50 in the test on HT29 colon was 1.78 µM.

Take `NC1=NCN(C2OC(CO)C(O)C2O)C(=O)N1` (configuration not stated): the concentration for total growth inhibition (TGI) in the test with NCI/ADR-RES ovarian turned out to be 2270 µM; in the test with CCRF-CEM leukemia, 541 µM; in the test with NCI-H23 lung it was 1500 µM; in the test with SF-295 CNS, 1460 µM; in the test with PC-3 prostate it was 1530 µM; with HCT-15 colon, 530 µM. Moreover, the TGI turned out to be 414 µM in the test on NCI-H226 lung, 734 µM in the test on HS 578T breast, 128 µM in the test with MALME-3M melanoma and 2000 µM in the test with HT29 colon.
